Columns and labels:
Type in all cases: biochemical
[1] = target: T1, Candida antarctica lipase B (CALB), wild type, SEQ ID NO: 2, L1/P317 (Moesziomyces antarcticus, UniProt P41365); experiment: Initial rate of hydrolysis of DiFMU octanoate, wild type; details: kcat/KM (variant)/kcat/KM (wild type)
T1 sequence (P41365 26-342): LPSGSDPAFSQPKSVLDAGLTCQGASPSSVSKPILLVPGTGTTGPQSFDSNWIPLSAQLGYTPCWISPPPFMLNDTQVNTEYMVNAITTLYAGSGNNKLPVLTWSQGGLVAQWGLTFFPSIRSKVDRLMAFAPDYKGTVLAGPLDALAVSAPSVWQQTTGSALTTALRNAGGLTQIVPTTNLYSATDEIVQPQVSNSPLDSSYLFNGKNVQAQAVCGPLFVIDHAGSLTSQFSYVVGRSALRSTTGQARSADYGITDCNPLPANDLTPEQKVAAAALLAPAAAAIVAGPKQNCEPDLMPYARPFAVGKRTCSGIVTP
Source text: (§1) Kinetic analysis of protein variants: To examine the impact of circular permutation on catalysis eleven functional CALB variants with termini in or near the active site were selected for detailed kinetic characterization. The locations of the termini in these variants are shown on the structure of CALB in FIG. 6; the numbers correspond to the amino acid residue of the new terminus. Following overexpression in P. pastoris, the selected circularly permuted proteins were purified to homogeneity. The catalytic performance of these variants was determined in activity assays with two standard lipase substrates, measuring the initial rates of hydrolysis of the chromogenic substrate p-nitrophenol butyrate (pNB) and the fluorogenic substrate 6,8-difluoro-4-methylumbelliferyl (DiFMU) octanoate. […]
(§2) Lipase activity was determined by measuring the initial hydrolysis rate of p-NB and DiFMU octanoate at room temperature on a Synergy-HT microtiterplate reader (Bio-Tek Instruments, Winooski, Vt.). Stock solutions of p-NB (200 mM) and DiFMU octanoate (3 mM) were prepared in DMSO. p-NB hydrolysis over a substrate range of 0-1.6 mM was measured in 50 mM K-phosphate buffer (pH 7.5) at 400 nm ( ? for p-NB=13260 M^1 cm^−1) as described in Bender, M. L. et al., J Am Chem Soc 1968, 90, (1), 201-7, which is hereby incorporated by reference. […]

[2] = target: T2, Candida antarctica lipase B (CALB) circularly permuted variant cp44, G44/T43 (Moesziomyces antarcticus, UniProt P41365); experiment: Initial rate of hydrolysis of DiFMU octanoate, cp44
T2 construct: Pichia pastoris, purified
Source text: (§3) Kinetic analysis of protein variants: To examine the impact of circular permutation on catalysis eleven functional CALB variants with termini in or near the active site were selected for detailed kinetic characterization. The locations of the termini in these variants are shown on the structure of CALB in FIG. 6; the numbers correspond to the amino acid residue of the new terminus. Following overexpression in P. pastoris, the selected circularly permuted proteins were purified to homogeneity. The catalytic performance of these variants was determined in activity assays with two standard lipase substrates, measuring the initial rates of hydrolysis of the chromogenic substrate p-nitrophenol butyrate (pNB) and the fluorogenic substrate 6,8-difluoro-4-methylumbelliferyl (DiFMU) octanoate.
(§4) The overexpression and purification of wild type CALB was performed as described in Rotticci-Mulder, J. C. et al., Protein Expr Purif 2001, 21, (3), 386-92, which is hereby incorporated by reference. The same protocol was adopted for the isolation of circular permutation variants of CALB. Briefly, pPIC9-ca/B was linearized by SacI digestion and electroporated into P. pastoris cells (GS115). Aliquots were plated on MD His^− plates and incubated at 30° C. Colonies appeared on plates after 2 days of incubation. A single colony was picked to inoculate 25 ml BMGY medium and the culture was incubated at 30° C. until it reached an OD600 of 2-6. The cells were harvested and resuspended in BMMY medium to an OD600 of 1. Protein expression was induced by addition of methanol to a final concentration of 0.5% (v/v) every 24 hours. After 4 days of incubation, the culture medium containing the lipase was separated from the cells by centrifugation (1500 g, 4° C., 10 min).
(§5) Lipase activity was determined by measuring the initial hydrolysis rate of p-NB and DiFMU octanoate at room temperature on a Synergy-HT microtiterplate reader (Bio-Tek Instruments, Winooski, Vt.). Stock solutions of p-NB (200 mM) and DiFMU octanoate (3 mM) were prepared in DMSO. p-NB hydrolysis over a substrate range of 0-1.6 mM was measured in 50 mM K-phosphate buffer (pH 7.5) at 400 nm ( ? for p-NB=13260 M^1 cm^−1) as described in Bender, M. L. et al., J Am Chem Soc 1968, 90, (1), 201-7, which is hereby incorporated by reference. The rate of DiFMU octanoate hydrolysis was determined by measuring the DiFMU formation over a substrate range of 0-12 μM in 50 mM K-phosphate buffer (pH 7.0) at an excitation/emission wavelength 360/460 nm. Kinetic constants were calculated by fitting the initial rates to the Michaelis-Menten equation using the Origin® software (version 7; OriginLab Corporation).

[3] = target: T3, Candida antarctica lipase B (CALB) circularly permuted variant cp144, His-L144/A141 (Moesziomyces antarcticus, UniProt P41365); experiment: Initial rate of hydrolysis of DiFMU octanoate, cp144 (His)
T3 construct: secreted from Pichia pastoris GS115, purified
Source text: as §3, §4, §5

[4] = target: T4, Candida antarctica lipase B (CALB) circularly permuted variant cp144a, L144/A141 (Moesziomyces antarcticus, UniProt P41365); experiment: Initial rate of hydrolysis of DiFMU octanoate, cp144a
T4 construct: Pichia pastoris, purified
Source text: as §3, §4
as §5, with “Corporation). […]” for “Corporation).”

[5] = target: T5, Candida antarctica lipase B (CALB) circularly permuted variant cp148, His-A148/L147 (Moesziomyces antarcticus, UniProt P41365); experiment: Initial rate of hydrolysis of DiFMU octanoate, cp148 (His)
T5 construct: Pichia pastoris, purified
Source text: as §3, §4, §5

[6] = target: T6, Candida antarctica lipase B (CALB) circularly permuted variant cp148a, A148/L147 (Moesziomyces antarcticus, UniProt P41365); experiment: Initial rate of hydrolysis of DiFMU octanoate, cp148a
T6 construct: Pichia pastoris, purified
Source text: as §3, §4
as §5, with “Corporation). […]” for “Corporation).”

[7] = target: T7, Candida antarctica lipase B (CALB) circularly permuted variant cp150, His-S150A/149 (Moesziomyces antarcticus, UniProt P41365); experiment: Initial rate of hydrolysis of DiFMU octanoate, cp150 (His)
T7 construct: Pichia pastoris, purified
Source text: as §3, §4, §5

[8] = target: T8, Candida antarctica lipase B (CALB) circularly permuted variant cp150, S150/V149 (Moesziomyces antarcticus, UniProt P41365); experiment: Initial rate of hydrolysis of DiFMU octanoate, cp150 (S150/V149)
T8 construct: Pichia pastoris, purified
Source text: as §3, §4
as §5, with “Corporation). […]” for “Corporation).”

[9] = target: T9, Candida antarctica lipase B (CALB) circularly permuted variant cp268, P268/T267 (Moesziomyces antarcticus, UniProt P41365); experiment: Initial rate of hydrolysis of DiFMU octanoate, cp268
T9 construct: Pichia pastoris, purified
Source text: as §3, §4, §5
(§6) The present study included ten CALB variants. […]

[10] = target: T1, Candida antarctica lipase B (CALB), wild type, SEQ ID NO: 2, L1/P317; experiment: Initial rate of hydrolysis of p-nitrophenol butyrate (pNB), wild type; details: kcat/KM (variant)/kcat/KM (wild type)
Source text: as §1, §2

[11] = target: T2, Candida antarctica lipase B (CALB) circularly permuted variant cp44, G44/T43; experiment: Initial rate of hydrolysis of pNB, cp44
Source text: as §3, §4, §5

[12] = target: T3, Candida antarctica lipase B (CALB) circularly permuted variant cp144, His-L144/A141; experiment: Initial rate of hydrolysis of pNB, cp144 (His)
Source text: as §3, §4, §5

[13] = target: T4, Candida antarctica lipase B (CALB) circularly permuted variant cp144a, L144/A141; experiment: Initial rate of hydrolysis of pNB, cp144a
Source text: as §3, §4
as §5, with “Corporation). […]” for “Corporation).”

[14] = target: T5, Candida antarctica lipase B (CALB) circularly permuted variant cp148, His-A148/L147; experiment: Initial rate of hydrolysis of pNB, cp148 (His)
Source text: as §3, §4, §5

[15] = target: T6, Candida antarctica lipase B (CALB) circularly permuted variant cp148a, A148/L147; experiment: Initial rate of hydrolysis of pNB, cp148a
Source text: as §3, §4
as §5, with “Corporation). […]” for “Corporation).”

[16] = target: T10, Candida antarctica lipase B (CALB) circularly permuted variant cp150, His-S150/V149 (Moesziomyces antarcticus, UniProt P41365); experiment: Initial rate of hydrolysis of pNB, cp150 (His)
T10 construct: Pichia pastoris, purified
Source text: as §3, §4, §5

[17] = target: T8, Candida antarctica lipase B (CALB) circularly permuted variant cp150, S150/V149; experiment: Initial rate of hydrolysis of pNB, cp150 (S150/V149)
Source text: as §3, §4
as §5, with “Corporation). […]” for “Corporation).”

[18] = target: T9, Candida antarctica lipase B (CALB) circularly permuted variant cp268, P268/T267; experiment: Initial rate of hydrolysis of pNB, cp268
Source text: as §3, §4, §5, §6

[19] = 50 mM K-phosphate pH 7.0, room temperature
[20] = kcat/KM (variant)/kcat/KM (wild type)
[21] = 50 mM K-phosphate pH 7.5, room temperature

T7 sequence (P41365 26-342, stated change not applied): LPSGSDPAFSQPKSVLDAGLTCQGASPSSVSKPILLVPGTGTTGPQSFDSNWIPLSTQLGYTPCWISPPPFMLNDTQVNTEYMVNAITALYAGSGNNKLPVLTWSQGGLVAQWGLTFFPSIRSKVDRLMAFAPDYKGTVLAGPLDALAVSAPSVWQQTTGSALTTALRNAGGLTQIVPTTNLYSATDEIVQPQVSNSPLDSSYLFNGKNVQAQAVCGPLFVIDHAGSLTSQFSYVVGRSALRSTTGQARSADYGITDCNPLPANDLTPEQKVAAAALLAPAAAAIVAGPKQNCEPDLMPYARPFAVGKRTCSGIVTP

## CCCCCCCC(=O)Oc1c(F)cc2c(C)cc(=O)oc2c1F [DiFMU octanoate, 6,8-difluoro-4-methylumbelliferyl octanoate]
[1]
  relative specificity: 1.0
[2]; [19]
  Km: 5.6 ± 0.8 µM
[2]; [20]
  relative specificity: 0.13
[2]; pH 7.0, room temperature
  kcat: 0.5 ± 0.05 min⁻¹
  kcat/KM: 0.1 min⁻¹ µM⁻¹
[3]; [19]
  Km: 2000 ± 500 nM
[3]; [20]
  relative specificity: 0.6
[3]; pH 7.0, room temperature
  kcat: 1 ± 0.1 min⁻¹
  kcat/KM: 0.5 min⁻¹ µM⁻¹
[4]; [19]
  Km: 3 ± 0.3 µM
[4]; [20]
  relative specificity: 0.6
[4]; pH 7.0, room temperature
  kcat: 1.5 ± 0.1 min⁻¹
  kcat/KM: 0.5 min⁻¹ µM⁻¹
[5]; [19]
  Km: 3.5 ± 0.5 µM
[5]; [20]
  relative specificity: 0.4
[5]; pH 7.0, room temperature
  kcat: 1.5 ± 0.2 min⁻¹
  kcat/KM: 0.35 min⁻¹ µM⁻¹
[6]; [19]
  Km: 6.1 ± 0.7 µM
[6]; [20]
  relative specificity: 0.7
[6]; pH 7.0, room temperature
  kcat: 3.5 ± 0.2 min⁻¹
  kcat/KM: 0.57 min⁻¹ µM⁻¹
[7]; [19]
  Km: 2700 ± 800 nM
[7]; [20]
  relative specificity: 1.0
[7]; pH 7.0, room temperature
  kcat: 2.1 ± 0.2 min⁻¹
  kcat/KM: 0.8 min⁻¹ µM⁻¹
[8]; [19]
  Km: 5.5 ± 0.9 µM
[8]; [20]
  relative specificity: 0.5
[8]; pH 7.0, room temperature
  kcat: 2.2 ± 0.2 min⁻¹
  kcat/KM: 0.4 min⁻¹ µM⁻¹
[9]; [19]
  Km: 2300 ± 300 nM
[9]; [20]
  relative specificity: 15.6
[9]; pH 7.0, room temperature
  kcat: 28.8 ± 1.1 min⁻¹
  kcat/KM: 12.5 min⁻¹ µM⁻¹

## CCCC(=O)Oc1ccc([N+](=O)[O-])cc1 [pNB, p-Nitrophenyl butyrate]
[10]
  relative specificity: 1.0
[11]; [21]
  Km: 690 ± 90 µM
[11]; [20]
  relative specificity: 0.01
[11]; pH 7.5, room temperature
  kcat: 6 ± 0.5 min⁻¹
  kcat/KM: 0.01 min⁻¹ µM⁻¹
[12]; [21]
  Km: 550 ± 50 µM
[12]; [20]
  relative specificity: 0.4
[12]; pH 7.5, room temperature
  kcat: 178 ± 7 min⁻¹
  kcat/KM: 0.32 min⁻¹ µM⁻¹
[13]; [21]
  Km: 820 ± 100 µM
[13]; [20]
  relative specificity: 0.7
[13]; pH 7.5, room temperature
  kcat: 435 ± 28 min⁻¹
  kcat/KM: 0.53 min⁻¹ µM⁻¹
[14]; [21]
  Km: 500 ± 30 µM
[14]; [20]
  relative specificity: 0.5
[14]; pH 7.5, room temperature
  kcat: 171 ± 4 min⁻¹
  kcat/KM: 0.34 min⁻¹ µM⁻¹
[15]; [21]
  Km: 550 ± 70 µM
[15]; [20]
  relative specificity: 1.2
[15]; pH 7.5, room temperature
  kcat: 481 ± 29 min⁻¹
  kcat/KM: 0.87 min⁻¹ µM⁻¹
[16]; [21]
  Km: 510 ± 90 µM
[16]; [20]
  relative specificity: 1.4
[16]; pH 7.5, room temperature
  kcat: 520 ± 45 min⁻¹
  kcat/KM: 1.02 min⁻¹ µM⁻¹
[17]; [21]
  Km: 425 ± 50 µM
[17]; [20]
  relative specificity: 1.1
[17]; pH 7.5, room temperature
  kcat: 347 ± 16 min⁻¹
  kcat/KM: 0.82 min⁻¹ µM⁻¹
[18]; [21]
  Km: 580 ± 90 µM
[18]; [20]
  relative specificity: 7.1
[18]; pH 7.5, room temperature
  kcat: 3051 ± 229 min⁻¹
  kcat/KM: 5.26 min⁻¹ µM⁻¹

From patent US8034579B2, “Proteins with enhanced functionality and methods of making novel proteins using circular permutation” (Emory University, priority 2005, dated 2011)
